Measurements: ChEMBL document CHEMBL4052701, “Bioactive new withanolides from the cultured soft coral Sinularia brassica” (Bioorg Med Chem Lett, 2017)

Experiments:
[1] = tested on: Neutrophil; experiment: Antiinflammatory activity in human neutrophils assessed as inhibition of fMLP/CB-induced superoxide anion generation by measuring superoxide […] dismutase inhibitable reduction of ferricytochrome c incubated for 5 mins; format: functional, cell-based
[2] = tested on: K562; experiment: Cytotoxicity against human K562 cells incubated for 72 hrs by alamar blue assay; format: functional, cell-based; details: K562, 72 h
[3] = tested on: P388; experiment: Cytotoxicity against mouse P388 cells incubated for 72 hrs by alamar blue assay; format: functional, cell-based; details: P388, 72 h
[4] = tested on: Neutrophil; experiment: Antiinflammatory activity in human neutrophils assessed as inhibition of fMLP/CB-induced superoxide anion generation by measuring superoxide […] dismutase inhibitable reduction of ferricytochrome c at 10 uM incubated for 5 mins; format: functional
[5] = tested on: MOLT-4; experiment: Cytotoxicity against human MOLT4 cells incubated for 72 hrs by alamar blue assay; format: functional, cell-based; details: MOLT-4, 72 h
[6] = tested on: Neutrophil; experiment: Antiinflammatory activity in human neutrophils assessed as inhibition of fMLP/CB-induced elastase release at 10 uM incubated for 5 mins in presence of MeO-Suc-Ala-Ala-Pro-Val-p-nitroanilide; format: functional
[7] = tested on: HT-29; experiment: Cytotoxicity against human HT-29 cells incubated for 72 hrs by alamar blue assay; format: functional, cell-based; details: HT-29, 72 h
[8] = tested on: Neutrophil; experiment: Antiinflammatory activity in human neutrophils assessed as inhibition of fMLP/CB-induced elastase release incubated for 5 mins in presence of MeO-Suc-Ala-Ala-Pro-Val-p-nitroanilide; format: functional, cell-based

SMILES: C[C@H]1[C@H]([C@@]2(O)O[C@H]3C[C@H]4[C@@H]5CCC6=CC(=O)C=C[C@]6(C)[C@H]5CC[C@]4(C)[C@H]3[C@@H]2C)OC(=O)[C@@H]1C
- IC50 [1]: > 10 µM
- IC50 [2]: 12.6 µM
- IC50 [3]: 18.7 µM
- inhibition at 10 µM [4]: 32.1%
- IC50 [5]: 17.2 µM
- inhibition at 10 µM [6]: 9.5%
- IC50 [7]: 11.2 µM
- IC50 [8]: > 10 µM

SMILES: CC[C@H](Nc1ncnc2[nH]cnc12)c1nc2cccc(F)c2c(=O)n1-c1ccccc1 [IDELALISIB]
- IC50 [1]: 0.07 µM
- inhibition at 10 µM [4]: 103%
- inhibition at 10 µM [6]: 99.6%
- IC50 [8]: 0.3 µM

SMILES: C[C@@H]1[C@H]([C@H]2OC(=O)[C@@H](C)[C@H]2C)O[C@H]2C[C@H]3[C@@H]4CCC5=CC(=O)C=C[C@]5(C)[C@H]4CC[C@]3(C)[C@@H]12
- IC50 [1]: 3.5 µM
- IC50 [2]: 8.7 µM
- IC50 [3]: 29.9 µM
- inhibition at 10 µM [4]: 87.7%
- IC50 [5]: 12.1 µM
- inhibition at 10 µM [6]: 114%
- IC50 [7]: 18.7 µM
- IC50 [8]: 1.4 µM

SMILES: C[C@@H]1C(=O)[C@@]2(OC(=O)[C@H](C)[C@H]2C)O[C@H]2C[C@H]3[C@@H]4CCC5=CC(=O)C=C[C@]5(C)[C@H]4CC[C@]3(C)[C@H]21
- IC50 [1]: > 10 µM
- IC50 [2]: > 40 µM
- IC50 [3]: > 40 µM
- inhibition at 10 µM [4]: 17.3%
- IC50 [5]: > 40 µM
- inhibition at 10 µM [6]: 12.5%
- IC50 [7]: > 40 µM
- IC50 [8]: > 10 µM

SMILES: C[C@@H]([C@H]1CC[C@H]2[C@@H]3CCC4=CC(=O)C=C[C@]4(C)[C@H]3CC[C@]12C)[C@H]1C[C@H](C)[C@@H](C)C(=O)O1
- IC50 [1]: > 10 µM
- IC50 [2]: > 40 µM
- IC50 [3]: > 40 µM
- inhibition at 10 µM [4]: 26.3%
- IC50 [5]: > 40 µM
- inhibition at 10 µM [6]: 25%
- IC50 [7]: > 40 µM
- IC50 [8]: > 10 µM

SMILES: C[C@H]1[C@H]2[C@H](C[C@H]3[C@@H]4CCC5=CC(=O)C=C[C@]5(C)[C@H]4CC[C@]23C)O[C@]2(OC(=O)[C@H](C)[C@H]2C)[C@H]1O
- IC50 [1]: > 10 µM
- IC50 [2]: 29.7 µM
- IC50 [3]: 39.8 µM
- inhibition at 10 µM [4]: 14.4%
- IC50 [5]: 28.6 µM
- inhibition at 10 µM [6]: 32.4%
- IC50 [7]: 24.4 µM
- IC50 [8]: > 10 µM

SMILES: C[C@H]1[C@H]2[C@H](C[C@H]3[C@@H]4CCC5=CC(=O)C=C[C@]5(C)[C@H]4CC[C@]23C)O[C@@]2(OC(=O)[C@@H](C)[C@H]2C)[C@H]1O
- IC50 [1]: > 10 µM
- IC50 [2]: 17.4 µM
- IC50 [3]: 18.3 µM
- inhibition at 10 µM [4]: 34.3%
- IC50 [5]: 13.7 µM
- inhibition at 10 µM [6]: 11.4%
- IC50 [7]: 20.5 µM
- IC50 [8]: > 10 µM

SMILES: O=c1[nH]cc(F)c(=O)[nH]1 [FLUOROURACIL]
- IC50 [2]: 30.5 µM
- IC50 [3]: 5.8 µM
- IC50 [5]: 6.2 µM
- IC50 [7]: 7.2 µM
